Data as given in ChEMBL document CHEMBL1201862, “PubChem BioAssay data set” (2004).
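Briefly, cells in 96-well plates were exposed to five compound concentrations for 48 h, and endpoints were estimated by linear interpolation. Here, GI50 denotes the concentration required for 50% inhibition of growth.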 The source made the active and inactive calls. Cut-off read from the data, not from the text of the source: active = GI50 up to about 1.1 µM and inactive = higher.

What was measured:
Assay in all cases: NCI-60 cell line screen, 48 h
Malme-3M = tested on: Malme-3M
CAKI-1 = tested on: CAKI-1
SW-620 = tested on: SW-620
MDA-MB-231 = tested on: MDA-MB-231
SK-MEL-5 = tested on: SK-MEL-5
Hs-578T = tested on: Hs-578T
SK-OV-3 = tested on: SK-OV-3
SF-539 = tested on: SF-539
KM12 = tested on: KM12
SK-MEL-28 = tested on: SK-MEL-28
UACC-257 = tested on: UACC-257
SNB-75 = tested on: SNB-75
SF-295 = tested on: SF-295
HCT-116 = tested on: HCT-116
OVCAR-8 = tested on: OVCAR-8
786-0 = tested on: 786-0
LOX IMVI = tested on: LOX IMVI
OVCAR-3 = tested on: OVCAR-3
A549 = tested on: A549
OVCAR-4 = tested on: OVCAR-4

O=C1OCC(CN2CCC(n3c(=O)[nH]c4ccccc43)CC2)=C1c1ccccc1
GI50 (Malme-3M): 22.8 µM (inactive) | GI50 (CAKI-1): 22.9 µM (inactive) | GI50 (SW-620): 34.9 µM (inactive) | GI50 (MDA-MB-231): 26.4 µM (inactive) | GI50 (SK-MEL-5): 15.3 µM (inactive) | GI50 (Hs-578T): 30 µM (inactive) | GI50 (SK-OV-3): 37.2 µM (inactive) | GI50 (SF-539): 18.9 µM (inactive) | GI50 (KM12): 16.3 µM (inactive) | GI50 (SK-MEL-28): 23.4 µM (inactive) | GI50 (UACC-257): 23.4 µM (inactive) | GI50 (SNB-75): 28.2 µM (inactive) | GI50 (SF-295): 26.4 µM (inactive) | GI50 (HCT-116): 25.5 µM (inactive) | GI50 (OVCAR-8): 17.1 µM (inactive) | GI50 (786-0): 33.4 µM (inactive) | GI50 (LOX IMVI): 21.4 µM (inactive) | GI50 (OVCAR-3): 24.7 µM (inactive) | GI50 (A549): 30.1 µM (inactive) | GI50 (OVCAR-4): 18.7 µM (inactive)

O=C(O)CCc1ccc2c(c1)CC1(Cc3ccccc3C1)C2
GI50 (Malme-3M): > 100 µM (inactive) | GI50 (MDA-MB-231): > 100 µM (inactive) | GI50 (SK-MEL-5): > 100 µM (inactive) | GI50 (Hs-578T): > 100 µM (inactive) | GI50 (SK-OV-3): > 100 µM (inactive) | GI50 (SF-539): > 100 µM (inactive) | GI50 (KM12): > 100 µM (inactive) | GI50 (UACC-257): > 100 µM (inactive) | GI50 (SNB-75): < 0.01 µM (active) | GI50 (SF-295): > 100 µM (inactive) | GI50 (HCT-116): > 100 µM (inactive) | GI50 (OVCAR-8): > 100 µM (inactive) | GI50 (786-0): > 100 µM (inactive) | GI50 (LOX IMVI): > 100 µM (inactive) | GI50 (OVCAR-3): > 100 µM (inactive) | GI50 (A549): > 100 µM (inactive) | GI50 (OVCAR-4): 49.3 µM (inactive)

CC1(C)Oc2ccc(NC(=O)CCC(N)C(=O)O)cc2O1 (stereo not drawn)
GI50 (Malme-3M): > 100 µM (inactive) | GI50 (CAKI-1): > 100 µM (inactive) | GI50 (SW-620): > 100 µM (inactive) | GI50 (MDA-MB-231): > 100 µM (inactive) | GI50 (SK-MEL-5): > 100 µM (inactive) | GI50 (Hs-578T): > 100 µM (inactive) | GI50 (SK-OV-3): > 100 µM (inactive) | GI50 (SF-539): > 100 µM (inactive) | GI50 (KM12): > 100 µM (inactive) | GI50 (SK-MEL-28): > 100 µM (inactive) | GI50 (SNB-75): > 100 µM (inactive) | GI50 (SF-295): > 100 µM (inactive) | GI50 (HCT-116): > 100 µM (inactive) | GI50 (OVCAR-8): > 100 µM (inactive) | GI50 (786-0): > 100 µM (inactive) | GI50 (LOX IMVI): > 100 µM (inactive) | GI50 (OVCAR-3): > 100 µM (inactive) | GI50 (A549): > 100 µM (inactive) | GI50 (OVCAR-4): > 100 µM (inactive)

COC(=O)C(Cc1ccccc1)C(=O)NC(CNC(=O)OCc1ccccc1)C(=O)OCc1ccccc1 (stereo not drawn)
GI50 (Malme-3M): 19.8 µM (inactive) | GI50 (CAKI-1): 36.8 µM (inactive) | GI50 (SW-620): 38.1 µM (inactive) | GI50 (MDA-MB-231): 20.8 µM (inactive) | GI50 (SK-MEL-5): 18.8 µM (inactive) | GI50 (Hs-578T): > 63.5 µM (inactive) | GI50 (SK-OV-3): > 100 µM (inactive) | GI50 (SF-539): 40.6 µM (inactive) | GI50 (KM12): 58.9 µM (inactive) | GI50 (SK-MEL-28): 19.3 µM (inactive) | GI50 (UACC-257): 17.6 µM (inactive) | GI50 (SNB-75): 23.3 µM (inactive) | GI50 (SF-295): 47.1 µM (inactive) | GI50 (HCT-116): 31.9 µM (inactive) | GI50 (OVCAR-8): 63.1 µM (inactive) | GI50 (786-0): 25.9 µM (inactive) | GI50 (LOX IMVI): 19.6 µM (inactive) | GI50 (OVCAR-3): 20 µM (inactive) | GI50 (OVCAR-4): 38.3 µM (inactive)

O=C([C@H](O)[C@@H](O)c1ccc(Br)cc1)C12CC3CC(CC(C3)C1)C2
GI50 (Malme-3M): 13.9 µM (inactive) | GI50 (CAKI-1): 14.9 µM (inactive) | GI50 (MDA-MB-231): 10.5 µM (inactive) | GI50 (SK-MEL-5): 23.6 µM (inactive) | GI50 (Hs-578T): > 39.1 µM (inactive) | GI50 (SK-OV-3): 28.4 µM (inactive) | GI50 (SF-539): 8.91 µM (inactive) | GI50 (KM12): 13.8 µM (inactive) | GI50 (SK-MEL-28): 24.7 µM (inactive) | GI50 (UACC-257): 9.59 µM (inactive) | GI50 (SNB-75): 2.93 µM (inactive) | GI50 (SF-295): 13 µM (inactive) | GI50 (HCT-116): 10.4 µM (inactive) | GI50 (OVCAR-8): 42.8 µM (inactive) | GI50 (786-0): 9.53 µM (inactive) | GI50 (LOX IMVI): 31.1 µM (inactive) | GI50 (OVCAR-3): 9.25 µM (inactive) | GI50 (A549): 9.38 µM (inactive) | GI50 (OVCAR-4): 19.3 µM (inactive)

C=C(C)[C@@]1(OC(=O)c2cc([N+](=O)[O-])cc([N+](=O)[O-])c2)C[C@@H]2CCCC[C@@H]21
GI50 (Malme-3M): 34.2 µM (inactive) | GI50 (CAKI-1): > 100 µM (inactive) | GI50 (SW-620): > 100 µM (inactive) | GI50 (MDA-MB-231): > 100 µM (inactive) | GI50 (SK-MEL-5): > 10 µM (inactive) | GI50 (Hs-578T): > 100 µM (inactive) | GI50 (SK-OV-3): > 100 µM (inactive) | GI50 (SF-539): > 100 µM (inactive) | GI50 (KM12): > 100 µM (inactive) | GI50 (SK-MEL-28): > 100 µM (inactive) | GI50 (UACC-257): > 100 µM (inactive) | GI50 (SNB-75): > 100 µM (inactive) | GI50 (SF-295): 72.9 µM (inactive) | GI50 (HCT-116): > 100 µM (inactive) | GI50 (OVCAR-8): > 100 µM (inactive) | GI50 (786-0): > 100 µM (inactive) | GI50 (LOX IMVI): > 100 µM (inactive) | GI50 (A549): 39.4 µM (inactive) | GI50 (OVCAR-4): 56.2 µM (inactive)

N#Cc1cc2c(n(C3OC(CO)C(O)C(O)C3O)c1=S)CCCCC2 (stereo not drawn)
GI50 (Malme-3M): > 100 µM (inactive) | GI50 (CAKI-1): > 100 µM (inactive) | GI50 (MDA-MB-231): > 100 µM (inactive) | GI50 (SK-MEL-5): > 100 µM (inactive) | GI50 (Hs-578T): > 100 µM (inactive) | GI50 (SF-539): > 100 µM (inactive) | GI50 (KM12): > 100 µM (inactive) | GI50 (SK-MEL-28): > 100 µM (inactive) | GI50 (UACC-257): > 100 µM (inactive) | GI50 (SNB-75): > 100 µM (inactive) | GI50 (SF-295): > 100 µM (inactive) | GI50 (HCT-116): > 100 µM (inactive) | GI50 (OVCAR-8): > 100 µM (inactive) | GI50 (786-0): > 100 µM (inactive) | GI50 (LOX IMVI): > 100 µM (inactive) | GI50 (OVCAR-3): > 100 µM (inactive) | GI50 (A549): > 100 µM (inactive) | GI50 (OVCAR-4): > 100 µM (inactive)

Nn1c(SCC(=O)O)nc2ccccc2c1=O
GI50 (Malme-3M): > 100 µM (inactive) | GI50 (CAKI-1): > 100 µM (inactive) | GI50 (SW-620): > 100 µM (inactive) | GI50 (MDA-MB-231): > 100 µM (inactive) | GI50 (SK-MEL-5): > 100 µM (inactive) | GI50 (Hs-578T): > 100 µM (inactive) | GI50 (SF-539): > 100 µM (inactive) | GI50 (KM12): > 100 µM (inactive) | GI50 (SK-MEL-28): > 100 µM (inactive) | GI50 (UACC-257): > 100 µM (inactive) | GI50 (SNB-75): > 100 µM (inactive) | GI50 (SF-295): > 100 µM (inactive) | GI50 (HCT-116): > 100 µM (inactive) | GI50 (OVCAR-8): > 100 µM (inactive) | GI50 (786-0): > 100 µM (inactive) | GI50 (LOX IMVI): > 100 µM (inactive) | GI50 (OVCAR-3): > 100 µM (inactive) | GI50 (A549): > 100 µM (inactive) | GI50 (OVCAR-4): > 100 µM (inactive)

COc1ccc(CNNC(=O)c2cc[n+]([BH2-]C#N)cc2)cc1OC
GI50 (Malme-3M): > 100 µM (inactive) | GI50 (CAKI-1): > 100 µM (inactive) | GI50 (SW-620): > 100 µM (inactive) | GI50 (MDA-MB-231): > 100 µM (inactive) | GI50 (SK-MEL-5): > 100 µM (inactive) | GI50 (Hs-578T): > 100 µM (inactive) | GI50 (SF-539): > 100 µM (inactive) | GI50 (KM12): > 100 µM (inactive) | GI50 (SK-MEL-28): > 100 µM (inactive) | GI50 (UACC-257): > 100 µM (inactive) | GI50 (SNB-75): > 100 µM (inactive) | GI50 (SF-295): > 100 µM (inactive) | GI50 (HCT-116): > 100 µM (inactive) | GI50 (OVCAR-8): > 100 µM (inactive) | GI50 (786-0): > 100 µM (inactive) | GI50 (LOX IMVI): > 100 µM (inactive) | GI50 (OVCAR-3): > 100 µM (inactive) | GI50 (A549): > 100 µM (inactive) | GI50 (OVCAR-4): > 100 µM (inactive)

CC(=O)OCC1=C(C)C[C@H]([C@@H](COC(C)=O)C2CCC3C4C[C@H]5O[C@]56CC=CC(=O)[C@]6(C)C4CC[C@@]32C)OC1=O (stereo partly drawn)
GI50 (Malme-3M): 0.274 µM (active) | GI50 (CAKI-1): 0.671 µM (active) | GI50 (SW-620): 0.115 µM (active) | GI50 (MDA-MB-231): 0.376 µM (active) | GI50 (SK-MEL-5): 0.269 µM (active) | GI50 (Hs-578T): 1 µM (active) | GI50 (SK-OV-3): 1.79 µM (inactive) | GI50 (KM12): 0.138 µM (active) | GI50 (SK-MEL-28): 0.3 µM (active) | GI50 (UACC-257): 0.302 µM (active) | GI50 (SNB-75): 2.16 µM (inactive) | GI50 (SF-295): 1.19 µM (inactive) | GI50 (HCT-116): 0.097 µM (active) | GI50 (OVCAR-8): 0.15 µM (active) | GI50 (786-0): 0.19 µM (active) | GI50 (LOX IMVI): 0.122 µM (active) | GI50 (OVCAR-3): 0.109 µM (active) | GI50 (A549): 1.39 µM (inactive) | GI50 (OVCAR-4): 0.359 µM (active)
